From PMC7940618, “Specific inhibition of the Survivin–CRM1 interaction by peptide-modified molecular tweezers” (Nature Communications, 2021)

What was measured:
Survivin–CRM1 complex = molecular target: T1, Survivin–CRM1 complex (Homo sapiens, UniProt O15392); test: Pull-down with 293T lysate (Survivin142-HA), GST-CRM1 bait, RanQ69L, dGTP; type: binding; conditions: pull-down, tweezer 0.01 to 200 µM, 293T lysate
T1 construct: expressed in transfected cells; host or cells: 293T cells (Survivin142-HA); E. coli soluBL21 (GST-CRM1, RanQ69L)
T1 sequence (O15392 whole entry, one chain of several): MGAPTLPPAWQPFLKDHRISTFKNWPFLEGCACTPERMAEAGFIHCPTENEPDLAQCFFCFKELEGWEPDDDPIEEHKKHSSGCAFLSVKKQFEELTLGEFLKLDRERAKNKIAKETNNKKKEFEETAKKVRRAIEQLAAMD
Experimental: We next investigated whether tweezers inhibit the Survivin–CRM1 complex formation in vitro. The effects of the unmodified and peptide-linked tweezers were analyzed via pull-down experiments with 293T lysates containing overexpressed HA-tagged Survivin142, recombinant GST-CRM1 as bait protein, and tweezers (Fig. 6). The parent and ELTL-linked tweezer required 10–50 µM to disrupt the Survivin–CRM1 complex. […] In order to provide experimental evidence for the sequence selectivity of the TW-ELTLGEFL ligand, a scrambled analog was synthesized and clicked to the tweezer, resulting in the hybrid molecule TW-LFEEGLLT (SI1, SI2, and SI10). […] Instead, the slight chemical shift perturbations might be due to the spatial proximity of the peptide moiety to the anchoring residue. All those results strongly indicate that the additional binding energy from the NES interface was lost due to scrambling and thus point toward specific recognition as the reason for increased selectivity and interference with the Survivin–CRM1 interaction. Of note, very high tweezer concentrations (100–200 µM) also weakened GST-CRM1 binding to GSH-Sepharose beads, most likely by low-affinity binding to the GST protein.
All pull-down assays were performed at room temperature in pull-down buffer (PBS, pH 7.4, 1 mM DTT, 0.02 Triton X-100). GST fusion proteins were immobilized on 50 μL GSH-coated Sepharose 4B beads from GE Healthcare. The beads were prior equilibrated and blocked with 500 μL pull-down blocking buffer (PBS, pH 7.4, 1 (w/v) BSA, 1 mM DTT, 0.02 (v/v) Triton X-100) for 1 h to prevent unspecific binding.
For analysis of the effective inhibitory tweezer concentration, 200 μg 293T lysate with overexpressed Survivin142-HA was preincubated without ligand or with different concentrations (10 nM to 200 μM) of unmodified tweezer TW, TW-ELTL, TW-ELTLGEFL, or TW-LFEEGLLT for 1 h and then mixed with 35 μg GST-CRM1, 55 μg RanQ69L, and 2 mM dGTP. GSH-beads were incubated with this protein mixture for 2 h under rotation. […]
Samples of input and beads taken during pull-down experiments were ran on 12.5 SDS gels and transferred onto 0.2 µM PVDF membranes (Amersham Hybond P 0.2) using a PerfectBlue™ tank electro blotter (Peqlab) at 350 mA for 150 min. […] Chemiluminescence was detected and imaged using the Pierce ECL Plus Western Blotting Substrate kit (Thermo Fisher Scientific) and Chemidoc system (Bio-Rad) or film processor Cawomat 2000 IR (CAWO). Western blots were analyzed by densitometric analysis with ImageJ version 1.52p (U.S. National Institutes of Health), measuring the mean gray intensity of protein bands. […]

[1] = design: method as in PMID 23750919; conditions: read-out: KD, affinity toward lysine; cited from earlier work
Survivin120 = molecular target: T2, Survivin120 (Homo sapiens, UniProt O15392); test: Reverse ITC titration (tweezer into Survivin120); type: binding; conditions: tweezer added to constant Survivin
T2 construct: the only published NMR structure originated from a truncated Survivin (aa 1-120) with improved solubility; GST with PreScission site (N); made in house; host or cells: Escherichia coli soluBL21
T2 sequence (O15392 1-120): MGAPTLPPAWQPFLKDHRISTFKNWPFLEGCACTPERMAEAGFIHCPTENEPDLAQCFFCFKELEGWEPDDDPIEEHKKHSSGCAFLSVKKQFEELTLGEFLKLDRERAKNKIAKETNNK
Experimental: ITC was performed with a MicroCal iTC200 from Malvern Panalytical in PBS, pH 7.4 at 25 °C with molecular tweezers in the cell and Survivin120 in the titration syringe. The protein was dialyzed overnight at 4 °C against the PBS buffer. Ligands were dissolved in the respective dialysis buffer. Then, 300 µM TW were titrated with 300 µM Survivin120 WT or 321 µM Survivin120 K90/103T. Then, 100 µM TW-ELTL, TW-ELTLGEFL, or TW-LFEEGLLT was titrated with 1.2 mM Survivin120 WT or 2.5 mM Survivin120 K90/103T. For reverse titrations, either 33.3 or 34.4 µM Survivin120 in the cell was titrated with 5 mM TW or TW-ELTL in the syringe, respectively. All titrations were performed in PBS, pH 7.4 at 25 °C. Then, 1.5 μL injections were used with 120 s spacing time between injections. The injection rate was set to 0.5 µL/s and the reference power was 5 µcal/s. ITC thermograms were fitted to a one set of sites model with the software Origin (v7.0552) provided with the instrument. Heat of dilution was subtracted as constant from each data point.
Supplementary Figure SI8: Reverse ITC titrations. Titration of 33.3 μM (a) and 34,4 µM (b) Survivin120 in the cell with 5 mM unmodified tweezer TW (a) and TW-ELTL (b) in the syringe.
All titrations (n = 1) were performed in PBS, pH 7.4 at 25 °C. Top row: raw heating power over time subtracted by control heating power of Survivin120 titration into PBS. […]

For O=P(O)(O)Oc1c2c(c(OP(=O)(O)O)c3c1C1CC3c3cc4c(cc31)C1CC4c3ccccc31)C1CC2c2cc3c(cc21)C1CC3c2ccccc21 [TW, reference compound], the “concentration required to disrupt the Survivin–CRM1 complex” value (Survivin–CRM1 complex) is listed as 10 to 50 µM, the Kd [1] is listed as 17 µM and the “tweezer molecules accommodated on the protein surface (kink at fold tweezer excess)” value (Survivin120) is listed as 4–5.
In the case of CC(C)C[C@H](NC(=O)[C@@H](NC(=O)[C@H](CC(C)C)NC(=O)[C@H](CCC(=O)O)NC(=O)Cn1cc(CCOP(=O)(O)Oc2c3c(c(OP(=O)(O)O)c4c2[C@H]2C[C@@H]4c4cc5c(cc42)[C@H]2C[C@@H]5c4ccccc42)[C@H]2C[C@@H]3c3cc4c(cc32)[C@H]2C[C@@H]4c3ccccc32)nn1)[C@@H](C)O)C(=O)O [TW-ELTL], the “concentration required to disrupt the Survivin–CRM1 complex” value (Survivin–CRM1 complex) is reported as 10 to 50 µM and the “tweezer molecules accommodated on the protein surface (kink at fold tweezer excess)” value (Survivin120) is reported as 4–5.
